{"source": "patent US3931196A", "about": "“Phosphinolines and phosphindolines” (Monash University, priority 1972, dated 1976)", "key": {"[1]": {"test": "McKenzie Beechey Mouse Tail Stimulation Test (analgesic activity)", "format": "in vivo", "conditions": "compound active at 16mg/kg", "description": "The compounds described above were subjected to a Mouse Writhing Test and to the McKenzie Beechey Mouse Tail Stimulation Test (1962, Archives Internationales de Pharmacodynamae et de Therapie, 135) to determine their analgesic activities. The test compounds were prepared as 1.0% solutions in carboxymethylcellulose. The control in all tests was carboxymethylcellulose."}, "toxicity test (LD50)": {"test": "toxicity test (LD50)", "conditions": "in vivo, species and route not given"}}}
{"smiles": "CN(C)CCP1(=S)CCCc2ccccc21", "note": "(centres unmarked) [Compound 19, 1-(2-N,N-Dimethylamino)ethyl-1-thio-1,2,3,4-tetrahydrophosphinoline]", "values": [{"measurement": "activity relative to morphine in the Tail Stimulation Test", "setting": "[1]", "value": "comparable to morphine"}, {"measurement": "LD50", "setting": "toxicity test (LD50)", "value": 170, "unit": "mg/kg"}]}
